Patent EP0677039B1, “CYCLOBUTANE DERIVATIVES AS INHIBITORS OF […] SYNTHETASE AND PROTEIN […]” (Abbott Laboratories, priority 1993, dated 1995)

The molecules below were run against T1, Rat liver microsomal squalene synthetase (Rattus norvegicus, UniProt Q02769) (assay: In vitro inhibition of squalene synthetase). Conditions: 10 µM test compound; rat liver microsomes, labelled farnesyl pyrophosphate, 10 minutes at 37 °C; compared to controls with no test compound.
T1 construct: Rat liver microsome, the source of enzyme; from tissue; host or cells: rat liver microsomes
T1 sequence (Q02769 1-416): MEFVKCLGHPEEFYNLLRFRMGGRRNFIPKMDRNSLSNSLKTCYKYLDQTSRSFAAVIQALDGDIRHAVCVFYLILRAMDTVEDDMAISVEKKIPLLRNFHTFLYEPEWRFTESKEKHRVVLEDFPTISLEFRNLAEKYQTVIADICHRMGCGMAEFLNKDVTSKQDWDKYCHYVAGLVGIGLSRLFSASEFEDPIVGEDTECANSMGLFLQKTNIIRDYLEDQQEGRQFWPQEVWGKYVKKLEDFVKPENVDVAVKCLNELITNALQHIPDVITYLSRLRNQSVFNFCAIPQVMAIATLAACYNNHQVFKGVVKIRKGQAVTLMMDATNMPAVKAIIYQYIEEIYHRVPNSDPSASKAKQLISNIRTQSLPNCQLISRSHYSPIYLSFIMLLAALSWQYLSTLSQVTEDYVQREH
Format: biochemical
Experimental: In vitro inhibition of squalene synthetase may be measured by the following procedure. Rat liver microsomal squalene synthetase activity was measured using farnesyl pyrophosphate as a substrate and quantitating squalene synthesis using labelled farnesyl pyrophosphate and counting the squalene formed. Rat liver microsome, the source of enzyme, was prepared according to the method of Gillies, P. J., et al., Exp. Molc. Pathol. 44: 329-339 (1986), a modification of the procedure of Erickson, S. K., and Cooper, A. D., Metabolism, 29: 991-996 (1980). […] Oxygen was excluded from the closed incubation tube by degassing with nitrogen. The reaction was terminated by the addition of ethanolic KOH and after degassing with N2, the microsomal membranes were solubilized by heating at 60 °C for 30 minutes. The squalene was extracted into hexane, and the squalene was separated from all other radioactive molecules by passage over an activated alumina column. […] The per cent inhibition at a dose of 10 µM (or 1 µM) compared to controls with no test compound was determined. […]

| Compound | inhibition at 10 µM |
| --- | --- |
| C[C@@H](c1ccccc1)N(Cc1ccc(Oc2ccccc2)cc1)C(=O)[C@H]1[C@@H](C(=O)O)[C@H](C(=O)O)[C@@H]1C(=O)N(Cc1ccc(Oc2ccccc2)cc1)[C@@H](C)c1ccccc1 [Example 34] | 89% |
| O=C(O)[C@H]1[C@H](C(=O)O)[C@H](C(=O)N(CC=CC=Cc2ccccc2)Cc2ccccc2)[C@H]1C(=O)N(CC=CC=Cc1ccccc1)Cc1ccccc1 [Example 36, (1α,2β,3β,4α)-1,2-Di[N-benzyl-N-(5-phenyl-2,4-pentadienyl)aminocarbonyl]cyclobutane-3,4-dicarboxylic acid] | 63% |
| CCCN(CCc1ccc(Oc2ccccc2)cc1)C(=O)[C@H]1[C@@H](C(=O)O)[C@H](C(=O)O)[C@@H]1C(=O)N(CCC)CCc1ccc(Oc2ccccc2)cc1 [Example 38H, (1α,2β,3β,4α)-1,2-Di[N-propyl-N-(2-(4-phenoxyphenyl)ethyl)aminocarbonyl]cyclobutane-3,4-dicarboxylic acid] | 51% |
| CCCN(C(=O)C1C(C(=O)O)C(C(=O)O)C1C(=O)N(CCC)c1ccc(Oc2ccccc2)cc1)c1ccc(Oc2ccccc2)cc1 (stereo not drawn) [Example 39C, (1α,2β,3β,4α)-1,2-Di[N-propyl-N-(4-phenoxyphenyl)aminocarbonyl]cyclobutane-3,4-dicarboxylic acid] | 59% |
| COCCN(Cc1ccc(Oc2ccccc2)cc1)C(=O)C1C(C(=O)O)C(C(=O)O)C1C(=O)N(CCOC)Cc1ccc(Oc2ccccc2)cc1 (stereo not drawn) [Example 40B, (1α,2β,3β,4α)-1,2-Di[N-(2-methoxyethyl)-N-(4-phenoxybenzyl)aminocarbonyl]cyclobutane-3,4-dicarboxylic acid] | 82% |
| O=C(O)C1C(C(=O)O)C(C(=O)N(Cc2ccc(Oc3ccccc3)cc2)CC2CC2)C1C(=O)N(Cc1ccc(Oc2ccccc2)cc1)CC1CC1 (stereo not drawn) [Example 47B, (1α,2β,3β,4α)-1,2-Di[N-(cyclopropylmethyl)-N-(4-phenoxybenzyl)aminocarbonyl]cyclobutane-3,4-dicarboxylic acid] | 87% |
| COc1cccc(CCN(Cc2ccc(Oc3ccccc3)cc2)C(=O)C2C(C(=O)O)C(C(=O)O)C2C(=O)N(CCc2cccc(OC)c2)Cc2ccc(Oc3ccccc3)cc2)c1 (stereo not drawn) [Example 54B, (1α,2β,3β,4α)-1,2-Di[N-(4-phenoxybenzyl)-N-(3-methoxyphenethyl)aminocarbonyl]cyclobutane-3,4-dicarboxylic acid] | 74% |
| COc1ccc(CCN(Cc2ccc(Oc3ccccc3)cc2)C(=O)C2C(C(=O)O)C(C(=O)O)C2C(=O)N(CCc2ccc(OC)c(OC)c2)Cc2ccc(Oc3ccccc3)cc2)cc1OC (stereo not drawn) [Example 55, (1α,2β,3β,4α)-1,2-Di[N-(4-phenoxybenzyl)-N-(3,4-dimethoxyphenethyl)aminocarbonyl]cyclobutane-3,4-dicarboxylic acid] | 78% |
| O=C(O)[C@H]1[C@H](C(=O)O)[C@H](C(=O)N(CCc2ccccc2)Cc2ccc(Oc3ccccc3)cc2)[C@H]1C(=O)N(CCc1ccccc1)Cc1ccc(Oc2ccccc2)cc1 [Example 56, (1α,2β,3β,4α)-1,2-Di[N-(4-phenoxybenzyl)-N-phenethylaminocarbonyl] cyclobutane-3,4-dicarboxylic acid] | 86% |
| O=C(O)[C@H]1[C@H](C(=O)O)[C@H](C(=O)N(CCCc2ccccc2)Cc2ccc(Oc3ccccc3)cc2)[C@H]1C(=O)N(CCCc1ccccc1)Cc1ccc(Oc2ccccc2)cc1 [Example 57, (1α,2β,3β,4α)-1,2-Di[N-(4-phenoxybenzyl)-N-(3-phenyl-1-propyl)aminocarbonyl]cyclobutane-3,4-dicarboxylic acid] | 64% |
| O=C(O)[C@H]1[C@H](C(=O)O)[C@H](C(=O)N(CCCCc2ccccc2)Cc2ccc(Oc3ccccc3)cc2)[C@H]1C(=O)N(CCCCc1ccccc1)Cc1ccc(Oc2ccccc2)cc1 [Example 58, (1α,2β,3β,4α)-1,2-Di[N-(4-phenoxybenzyl)-N-(4-phenyl-1-butyl)aminocarbonyl]cyclobutane-3,4-dicarboxylic acid] | 63% |
| COC(=O)CN(Cc1ccc(Oc2ccccc2)cc1)C(=O)[C@H]1[C@@H](C(=O)O)[C@H](C(=O)O)[C@@H]1C(=O)N(CC(=O)OC)Cc1ccc(Oc2ccccc2)cc1 [Example 59, (1α,2β,3β,4α)-1,2-Di[N-(4-phenoxybenzyl)-N-(methoxycarbonylmethyl)aminocarbonyl]cyclobutane-3,4-dicarboxylic acid] | 50% |

Same assay, conditions: values marked * in Table 1: 1 µM test compound; rat liver microsomes, labelled farnesyl pyrophosphate, 10 minutes at 37 °C

| Compound | inhibition at 1 µM |
| --- | --- |
| C[C@H](c1ccccc1)N(Cc1ccc(Oc2ccccc2)cc1)C(=O)[C@H]1[C@@H](C(=O)O)[C@H](C(=O)O)[C@@H]1C(=O)N(Cc1ccc(Oc2ccccc2)cc1)[C@H](C)c1ccccc1 [Example 35] | 59% |
| CSCCN(Cc1ccc(Oc2ccccc2)cc1)C(=O)C1C(C(=O)O)C(C(=O)O)C1C(=O)N(CCSC)Cc1ccc(Oc2ccccc2)cc1 (stereo not drawn) [Example 41B, (1α,2β,3β,4α)-1,2-Di[N-(2-methylthioethyl)-N-(4-phenoxybenzyl)aminocarbonyl]cyclobutane-3,4-dicarboxylic acid] | 72% |
| CCSCCN(Cc1ccc(Oc2ccccc2)cc1)C(=O)C1C(C(=O)O)C(C(=O)O)C1C(=O)N(CCSCC)Cc1ccc(Oc2ccccc2)cc1 (stereo not drawn) [Example 42, (1α,2β,3β,4α)-1,2-Di[N-(2-ethylthioethyl)-N-(4-phenoxybenzyl)aminocarbonyl]cyclobutane-3,4-dicarboxylic acid] | 81% |
| O=C(O)C1C(C(=O)O)C(C(=O)N(CCF)Cc2ccc(Oc3ccccc3)cc2)C1C(=O)N(CCF)Cc1ccc(Oc2ccccc2)cc1 (stereo not drawn) [Example 43, (1α,2β,3β,4α)-1,2-Di[N-(2-fluoroethyl)-N-(4-phenoxybenzyl)aminocarbonyl]cyclobutane-3,4-dicarboxylic acid] | 47% |
| O=C(O)C1C(C(=O)O)C(C(=O)N(Cc2ccc(Oc3ccccc3)cc2)Cc2ccco2)C1C(=O)N(Cc1ccc(Oc2ccccc2)cc1)Cc1ccco1 (stereo not drawn) [Example 44, (1α,2β,3β,4α)-1,2-Di[N-(furan-2-ylmethyl)-N-(4-phenoxybenzyl)aminocarbonyl)cyclobutane-3,4-dicarboxylic acid] | 56% |
| O=C(O)C1C(C(=O)O)C(C(=O)N(Cc2ccc(Oc3ccccc3)cc2)Cc2cccs2)C1C(=O)N(Cc1ccc(Oc2ccccc2)cc1)Cc1cccs1 (stereo not drawn) [Example 45, (1α,2β,3β,4α)-1,2-Di[N-(thien-2-ylmethyl)-N-(4-phenoxybenzyl)aminocarbonyl]cyclobutane-3,4-dicarboxylic acid] | 50% |
| O=C(O)C1C(C(=O)O)C(C(=O)N(Cc2ccc(Oc3ccccc3)cc2)C2CCC2)C1C(=O)N(Cc1ccc(Oc2ccccc2)cc1)C1CCC1 (stereo not drawn) [Example 48, (1α,2β,3β,4α)-1,2-Di[N-cyclobutyl-N-(4-phenoxybenzyl)aminocarbonyl]cyclobutane-3,4-dicarboxylic acid] | 79% |
| O=C(O)C1C(C(=O)O)C(C(=O)N(Cc2ccc(F)cc2)Cc2ccc(Oc3ccccc3)cc2)C1C(=O)N(Cc1ccc(F)cc1)Cc1ccc(Oc2ccccc2)cc1 (stereo not drawn) [Example 53B, (1α,2β,3β,4α)-1,2-Di[N-(4-fluorobenzyl)-N-(4-phenoxybenzyl)aminocarbonyl]cyclobutane-3.4-dicarboxylic acid] | 63% |
| CCOC(=O)CCN(Cc1ccc(Oc2ccccc2)cc1)C(=O)[C@H]1[C@@H](C(=O)O)[C@H](C(=O)O)[C@@H]1C(=O)N(CCC(=O)OCC)Cc1ccc(Oc2ccccc2)cc1 [Example 60, (1α,2β,3β,4α)-1,2-Di[N-(4-phenoxybenzyl)-N-(ethoxycarbonylethyl)aminocarbonyl]cyclobutane-3,4-dicarboxylic acid] | 65% |
